Data on two compounds can be found in paper PMC10226132, “First-in-Class Selective Inhibitors of the Lysine Acetyltransferase KAT8” (Journal of Medicinal Chemistry, 2023).

What all share (format): cell-based, human
Experiment [1] concerns H4K16Ac in HT29 cells. Nature of the experiment: Western blot of H4K16Ac and KAT8 levels in HT29 cells. The settings on record: increasing concentrations, 24 h. As for the experimental part:
(§1) For WB experiments, the cells were lysed in RIPA buffer supplemented with 1× […] protease inhibitor cocktail (Sigma-Aldrich, S8830); 20 μg of total protein was resolved in 13.5% gels by SDS-PAGE. Then, the proteins were transferred to nitrocellulose membranes (Biorad Laboratories). Membranes were blocked for 1 h and incubated overnight with the appropriate primary antibody at 4 °C. After incubation, membranes were washed and incubated with the appropriate secondary antibody (Biorad Laboratories) for 1 h at room temperature. Following primary rabbit monoclonal antibodies H4K16Ac (1:1000, E2B8W, Rabbit mAb#13534, Cell Signalling Technology), KAT8 (1:1000, D5T3R Rabbit mAb #46862 Cell Signalling Technology), GAPDH (1:1000, sc-32233, Santa Cruz Biotechnologies), anti-LC3B (Sigma-Aldrich, L7543), anti-SQSTM1/p62 (Santa Cruz Biotechnology, sc-28,359), and anti-GAPDH (Santa Cruz Biotechnology, sc-32,233). Secondary antibodies: anti-mouse (Bio-Rad Laboratories, 1,706,515) or anti-rabbit (Bio-Rad Laboratories, 1,706,516) IgG-horseradish peroxidase-conjugated antibodies. Detection was performed by ECL Western Blotting Substrate (Biorad Laboratories). Images of blots were acquired through the ChemiDoc Imaging Systems (Biorad Laboratories). The band signals were quantified using ImageJ, and values were normalized to relative controls, depending on the analysis.
A general note: In western blotting, separated proteins are transferred to a membrane and probed.

Experiment [2] has as its system H4K16Ac in HT29 cells. Nature of the experiment: Immunofluorescence of H4K16Ac in HT29 cells. The settings on record: 50 μM, 24 h, compared with control. As for the experimental part:
(§2) For IF analysis, 1 × 10^5 HT-29 cells were grown on sterile coverslips. After 24 h, cells were exposed to different compounds for 24 h. IF staining for different acetylated lysine residues of histone H3 (H3K27Ac) and H4 (H4K16Ac) were carried out on PFA-fixed cells blocked with 20% goat serum in PBS and incubated overnight at 4 °C with primary rabbit monoclonal antibodies histone H3K27Ac (D5E4, Rabbit mAb#8173) and H4K16Ac (E2B8W, Rabbit mAb#13534, Cell Signalling Technology). Primary antibodies were detected using rabbit anti-IgG secondary antibodies conjugated with Cy3 (Jackson Immunoresearch 711-165-152). DNA was stained using 0.05 μg/mL 4′,6-diamidino-2-phenylindole (DAPI). The samples were acquired using an Olympus AX70 (Olympus America Inc.) microscope. Serial Z stacks of 0.4 μm thickness were acquired, taking care to cover the entire cell volume. For quantification of fluorescence intensity signals, images of untreated or treated cells were analyzed and processed using opensource Cell Profiler 4.1.3 image analysis software (https://cellprofiler.org/) to measure fluorescence-integrated intensity values for antibody binding relating to individual cells as previously reported.[67]

Another experiment concerns H3K27Ac in HT29 cells. As to the kind of experiment: Immunofluorescence of H3K27Ac in HT29 cells. The settings on record: 24 h, vs control. As for the experimental part: as §2
The test system of experiment [3] is HT29 cells. Nature of the experiment: MTT cell proliferation assay, HT29. The settings on record: for antiproliferative activity in HT29: 10, 25, 50, 100 μM; for IC50: Homo sapiens, HT-29, 72 h treatment, MTT. From the text:
(§3) Human commercially available AML U937, breast cancer MCF7, lung adenocarcinoma NCI-H460, H1299 and A-549, glioblastoma U251, B lymphocyte AHH1 cell lines were maintained in compete 10% foetal bovine serum (FBS,) RPMI 1640 (Euroclone, Milan, IT) medium. Human commercially available colon cancer HCT116 and HT29 lines and cervix adenocarcinoma HeLa cells were maintained in compete 10% FBS Dulbecco’s Modified Eagle Medium (DMEM) high glucose medium (Euroclone). L-Glutamine, FBS, and penicillin streptomycin mixture added to medium were obtained from Euroclone. All cell lines were cultured at 37 °C in a humidified atmosphere of 5% CO2:95% air and were tested for mycoplasma contamination routinely by RT-PCR.
(§4) For analysis of cell proliferation, cells were plated in sextuplicate on 96-well plates in complete media. After 24 h, cells were exposed to different drugs for 72 h. The inhibitory effect of different drugs was assessed by MTT (Sigma, St. Louis, MO, USA) colorimetric assays as previously reported.[67] Aqueous DMSO (0.5% v/v) was used as a control (untreated). The results are reported as “viability of drug-treated cells/viability of untreated cells” × 100 and represent the average ±SD of three independent experiments. IC50 values were using fitted by nonlinear regression using GraphPad Prism 8.0.
(Tetrazolium dyes change colour on reduction, which living cells bring about.)

A further experiment deals with A549 cells. Nature of the experiment: MTT cell proliferation assay, A549. The following applies: for antiproliferative activity in A549: 10, 25, 50, 100 μM; for IC50: 72 h treatment, MTT.
Text: as §3, §4

In a further experiment the test system is HCT116 cells. As to the kind of experiment: Cell cycle analysis by propidium iodide staining, HCT116. The settings on record: 72 h. As for the experimental part: (§5) For the analysis of the progression of cells through cell cycle phases and sub-G1 peak identification, 24 h after plating, cells were treated with the different compounds. After 72 h, both floating and adherent cells were collected and fixed with cold 70% ethanol. At least 24 h after fixation, cells were incubated with 0.025 mg/mL Propidium Iodide for 15 min at room temperature and analyzed. For Annexin V analysis, 24 h after plating, cells were treated with 50 and 100 μM of the compounds. In the case of chloroquine experiments, 10 μM chloroquine (Sigma-Aldrich, A9165) was added 30 min before compounds. 72 h after treatment, both floating and adherent cells were collected and stained with an Annexin V-FITC apoptosis detection kit (ENZO #ALX-850-020-KI). Samples were incubated 15 min in the dark at rt, and 10,000 events were then analyzed.

Experiment [4] has as its system HT29 cells. Nature of the experiment: Annexin V/PI analysis, HT29. The settings on record: 50 and 100 μM, 72 h, compared to control. The procedure:
as §5

The test system of experiment [5] is UCP2 mRNA in HCT116 cells. Nature of the experiment: qRT-PCR of UCP2 mRNA in HCT116 cells. The following applies: HCT116, 100 μM, 48 h. The procedure: Total RNA was isolated from cells after 48 h of treatment with compounds 19 and 34 (100 μM) using TRIzol reagent (Life Technologies) following the manufacturer’s instructions. cDNA was obtained by reverse transcription using a SensiFast cDNA Synthesis kit (Meridian Bioscience). qRT-PCR was performed using a Luna Universal qPCR Master Mix (BioLabs) and detected by Quant Studio3. The fold change of gene expression data was calculated by using the ddCT method. All samples were run in sextupled, and the results were presented as mean ± SEM. Detailed sequence of the primers used in the experiments can be found in the list below. • UCP2—Forward: 5′-[…]-3′ • Reverse 5′-[…]-3′ • HOXA9 — Forward: 5′-[…]-3′ • Reverse: 5′-[…]-3′
Background: Quantitative PCR measures a nucleic acid by following its amplification.

Experiment [6] relates to LC3 and p62 in HCT116 cells. Nature of the experiment: Western blot of autophagic markers in HCT116 cells. The settings on record: increasing doses, 48 h. As for the experimental part: as §1

As a reminder, the IC50 is the concentration that inhibits the measured activity by half. Low values mean greater potency in that assay, high ones weaker potency in that assay. Turning to `CC1=NN(c2ccc(C(=O)O)cc2)C(=O)/C1=C\c1ccc[nH]1` [Compound 19, (Z)-4-(4-((1H-Pyrrol-2-yl)methylene)-3-methyl-5-oxo-4,5-dihydro-1H-pyrazol-1-yl)benzoic Acid], in the experiment on H4K16Ac in HT29 cells [1], the “KAT8 expression level (WB)” value is given as “no consistent variation in KAT8 levels” and the “histone H4K16 acetylation levels (WB)” value is given as “induced a decrease in histone H4 acetylation levels”. Also, in the experiment on H4K16Ac in HT29 cells [2], the “reduction in H4K16Ac signal intensity (IF)” value is 80%. The “levels of histone H3K27Ac (IF)” value with H3K27Ac in HT29 cells is listed as “no significant differences”. The “antiproliferative activity in HT29” value with HT29 cells [3] (72 h) is “a certain degree of antiproliferative activity”. The IC50 in the experiment on HT29 cells [3] was above 100 µM. The “antiproliferative activity in A549” value in the experiment with A549 cells (72 h) is “dose-dependent antiproliferative effects”. The compound further gave an IC50 in the experiment on A549 cells (Homo sapiens, A549) of 41 ± 9.8 µM. In addition, the “change in the different stages of cell cycle, HCT116” value in the experiment on HCT116 cells was “no significative change”. In addition, in the experiment with HT29 cells [4], the “apoptotic cell population (Annexin V), HT29” value is on record as “only a slight increase in apoptotic cell population”. Besides, the “UCP2 mRNA levels” value in experiment [5] is listed as “reduce the mRNA levels of UCP2”. Further, in experiment [6], the “LC3-II/-I ratio and p62 autophagic markers (WB), HCT116” value is “modulation of the LC3-II/-I ratio and p62 autophagic markers”.

The term inhibition denotes the relative decrease from the control value, in per cent. A low value points to little suppression. Regarding `O=C(O)c1ccc(N2N=C(c3ccccc3)/C(=C/c3ccc[nH]3)C2=O)cc1` [Compound 34, (Z)-4-(4-((1H-Pyrrol-2-yl)methylene)-5-oxo-3-phenyl-4,5-dihydro-1H-pyrazol-1-yl)benzoic Acid], in the experiment on H4K16Ac in HT29 cells [1], the “KAT8 expression level (WB)” value is “no consistent variation in KAT8 levels”. The “histone H4K16 acetylation levels (WB)” value in the experiment on H4K16Ac in HT29 cells [1] is given as “induced a decrease in histone H4 acetylation levels”. Further, the “reduction in H4K16Ac signal intensity (IF)” value in the experiment on H4K16Ac in HT29 cells [2] is on record as “more than 50%”. The “levels of histone H3K27Ac (IF)” value in the experiment with H3K27Ac in HT29 cells is on record as “no significant differences”. Also, in the experiment on HT29 cells [3] (100 μM, 72 h), the “decrease of cell viability, HT29” value turned out to be 70%. For the same compound, in the experiment on HT29 cells [3] (72 h), the “antiproliferative activity in HT29” value is “a certain degree of antiproliferative activity”. The IC50 in the experiment with HT29 cells [3] came out at 54 ± 10.9 µM; in the experiment on A549 cells (Homo sapiens, A549), 33 ± 5.7 µM. The “antiproliferative activity in A549” value in the experiment with A549 cells (72 h) is given as “dose-dependent antiproliferative effects”. The compound also registered an inhibition at 50 µM with A549 cells (Homo sapiens, A549, 50 μM, 72 h) of around 65%. Besides, the inhibition at 100 µM in the experiment with A549 cells (Homo sapiens, A549, 100 μM, 72 h) is around 80%. Also, the “change in the different stages of cell cycle, HCT116” value in the experiment with HCT116 cells is “no significative change”. The “apoptotic cell population (Annexin V), HT29” value in the experiment on HT29 cells [4] is on record as “only a slight increase in apoptotic cell population”. Besides, the “UCP2 mRNA levels” value in [5] was “reduce the mRNA levels of UCP2”. In experiment [6], the “LC3-II/-I ratio and p62 autophagic markers (WB), HCT116” value was “modulation of the LC3-II/-I ratio and p62 autophagic markers”.
